In US20190256994A1, “Electrochemical Deposition of Elements in Aqueous Media” (LumiShield Technologies Incorporated, priority 2016, published 2019):

Details: acid of the ligand; cited from earlier work

Row | Molecule | pKa in water
1 | O=S(=O)(NS(=O)(=O)C(F)(F)F)C(F)(F)F [bis(trifluoromethane) sulfonamide(Tf2N), bis(trifluoromethane) sulfonamide] | Too negative to measure
2 | p-Toluenesulfonate [p-Toluenesulfonate (p-TSA)] | -2.14
3 | Trifluoroacetate [Trifluoroacetate (TFA)] | 0.52
4 | O=S(=O)(O)C(F)(F)F [Triflate (TfO), Triflate] | -3.43
5 | Methanesulfonate [Methanesulfonate (MSO)] | -1.61

Format: physicochemical
Details: 1 M aluminum aqueous solution

Row | Molecule | pH
6 | [Cl][Al]([Cl])[Cl] [AlCl3, Aluminum chloride] | 2.04
